Test results: patent US12178842B2, “PCSK9 antagonist compounds” (MERCK SHARP & DOHME LLC, priority 2019, dated 2024)
pKi: −log10 of the molar value.

Key:
Assay type in all cases: binding
PCSK9 [1] = target: T1, PCSK9 (Homo sapiens, UniProt Q8NBP7); experiment: PCSK9 Alexa FRET Standard TR-FRET assay; settings: Ki calculated from IC50 and KD of AF cyclic peptide Reagent A; 0.5 nM PCSK9, 20 nM AF cyclic peptide; read-out: Alexa FRET Stdt TR-FRET
T1 construct: biotin (biotinylated); purchased
How it was run: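 TR-FRET displacement with final 0.5 nM biotinylated PCSK9, 1.25 nM streptavidin-Eu and 20 nM AlexaFluor cyclic peptide in 50 mM HEPES pH 7.4, 0.15 M NaCl, 5 mM CaCl2, 0.01% BSA, 0.01% P20; ≥2 h at room temperature. IC50 by sigmoidal fit, converted to Ki (nM) using tracer KD.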

PCSK9 [2] = target: T1, PCSK9; experiment: PCSK9 Alexa FRET Plus TR-FRET assay
How it was run: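 TR-FRET competition between europium-labeled PCSK9 and AlexaFluor-tagged cyclic peptide (prepared at 1920 nM stock), incubated at least 2 h at room temperature. IC50 from sigmoidal nonlinear fit converted to Ki using the peptide KD; falling europium counts flag false-positive inhibition; values reported in nM.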

PCSK9 [3] = target: T1, PCSK9; experiment: PCSK9 Alexa FRET Ultra TR-FRET assay
How it was run: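 Competition of compounds with AlexaFluor-tagged cyclic peptide (1920 nM solution, not final) for europium-labeled PCSK9, read by TR-FRET after at least 2 h at room temperature. IC50 from sigmoidal fit, converted to Ki (nM) using peptide KD; falling europium counts flag false positives.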

[4] = Ki calculated from IC50 and KD of AF cyclic peptide Reagent B, 0.5 nM PCSK9, 960 nM AF cyclic peptide, read-out: Alexa FRET Plus TR-FRET
[5] = Ki Ultra, calculated from IC50 and KD of AF cyclic peptide, 0.5 nM PCSK9, 960 nM AF cyclic peptide, read-out: Alexa FRET Ultra TR-FRET

T1 sequence (Q8NBP7 153-692): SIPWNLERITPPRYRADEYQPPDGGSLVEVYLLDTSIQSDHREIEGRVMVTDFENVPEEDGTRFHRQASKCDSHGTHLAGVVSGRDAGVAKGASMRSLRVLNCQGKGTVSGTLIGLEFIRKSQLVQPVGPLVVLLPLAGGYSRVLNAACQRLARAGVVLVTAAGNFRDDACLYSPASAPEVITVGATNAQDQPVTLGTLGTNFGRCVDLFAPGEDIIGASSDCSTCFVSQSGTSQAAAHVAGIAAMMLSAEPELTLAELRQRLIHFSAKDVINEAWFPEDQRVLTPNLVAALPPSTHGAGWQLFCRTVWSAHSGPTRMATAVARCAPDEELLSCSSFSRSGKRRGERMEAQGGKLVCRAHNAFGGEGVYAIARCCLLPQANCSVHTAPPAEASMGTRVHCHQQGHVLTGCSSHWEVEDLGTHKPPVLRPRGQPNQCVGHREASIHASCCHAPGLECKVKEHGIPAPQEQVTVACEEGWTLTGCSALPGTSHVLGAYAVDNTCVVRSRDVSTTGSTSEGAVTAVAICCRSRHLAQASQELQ

pKi (PCSK9 [1]) | pKi (PCSK9 [2]; [4]) | pKi (PCSK9 [3]; [5]) | SMILES | pKi (PCSK9 [2]) | pKi (PCSK9 [3])
> 8.90 | 10.68 | 10.85 | COc1ccc(C[C@@H]2NC(=O)[C@H]([C@@H](C)O)NC(=O)[C@@H]3[C@@H]4CCN3C(=O)[C@@H]3Cc5cn(c6ccc(F)cc56)CCCCCCN(Cc5ccc(cc5)CCNC(=O)[C@]5(C)CCCN5C2=O)C(=O)CCC(=O)N[C@@H](C)C(=O)N[C@H](CNC(=O)CCOCCOCC[N+](C)(C)CCNC(=O)CC[C@H](NC(=O)COCCOCCNC(=O)CC[C@H](NC(=O)CCCCCCCCCCCCCCCCC(=O)O)C(=O)O)C(=O)O)C(=O)N[C@@H](Cc2cccc(c2)CNC(=O)CO4)C(=O)N3)cc1 [Ex-54] | – | –
> 8.90 | 10.92 | 11.00 | COc1ccc(C[C@@H]2NC(=O)[C@H]([C@@H](C)O)NC(=O)[C@@H]3[C@@H]4CCN3C(=O)[C@@H]3Cc5cn(c6ccc(F)cc56)CCCCCCN(Cc5ccc(cc5)CCNC(=O)[C@]5(C)CCCN5C2=O)C(=O)CCC(=O)N[C@@H](C)C(=O)N[C@H](CNC(=O)[C@@H](CCCC[N+](C)(C)C)NC(=O)COCCOCCNC(=O)COCCOCCNC(=O)CC[C@H](NC(=O)CC[C@H](NC(=O)CCCCCCCCCCCCCCCCC(=O)O)C(=O)O)C(=O)O)C(=O)N[C@@H](Cc2cccc(c2)CNC(=O)CO4)C(=O)N3)cc1 [Ex-55] | – | –
> 8.90 | > 11.22 | 11.40 | COc1ccc(C[C@@H]2NC(=O)[C@H]([C@@H](C)O)NC(=O)[C@@H]3[C@@H]4CCN3C(=O)[C@@H]3Cc5cn(c6ccc(F)cc56)CCCCCCN(Cc5ccc(cc5)CCNC(=O)[C@]5(C)CCCN5C2=O)C(=O)CCC(=O)N[C@@H](C)C(=O)N[C@H](CNC(=O)CCOCCOCC[N+](C)(C)CCNC(=O)COCCOCCNC(=O)COCCOCCNC(=O)CC[C@H](NC(=O)CCCCCCCCCCCCCCC(=O)N[C@@H](CC(=O)O)C(=O)O)C(=O)O)C(=O)N[C@@H](Cc2cccc(c2)CNC(=O)CO4)C(=O)N3)cc1 [Ex-56] | – | –
> 8.90 | 11.05 | 10.47 | COc1ccc(C[C@@H]2NC(=O)[C@H]([C@@H](C)O)NC(=O)[C@@H]3[C@@H]4CCN3C(=O)[C@@H]3Cc5cn(c6ccc(F)cc56)CCCCCCN(Cc5ccc(cc5)CCNC(=O)[C@]5(C)CCCN5C2=O)C(=O)CCC(=O)N[C@@H](CNC(=O)CCOCCOCC[N+](C)(C)CCNC(=O)COCCOCCNC(=O)COCCOCCNC(=O)CC[C@H](NC(=O)CCCCCCCCCCCCCCC(=O)O)C(=O)O)C(=O)N[C@H](C)C(=O)N[C@@H](Cc2cccc(c2)CNC(=O)CO4)C(=O)N3)cc1 [Ex-57] | – | –
> 8.90 | 10.74 | 10.10 | COc1ccc(C[C@@H]2NC(=O)[C@H]([C@@H](C)O)NC(=O)[C@@H]3[C@@H]4CCN3C(=O)[C@@H]3Cc5cn(c6ccc(F)cc56)CCCCCCN(Cc5ccc(cc5)CCNC(=O)[C@]5(C)CCCN5C2=O)C(=O)CCC(=O)N[C@@H](CNC(=O)CCOCCOCC[N+](C)(C)CCNC(=O)COCCOCCNC(=O)COCCOCCNC(=O)CC[C@H](NC(=O)CC[C@H](NC(=O)CCCCCCCCCCCCCCCCC(=O)O)C(=O)O)C(=O)O)C(=O)N[C@H](C)C(=O)N[C@@H](Cc2cccc(c2)CNC(=O)CO4)C(=O)N3)cc1 [Ex-58] | – | –
> 8.90 | 10.70 | 10.00 | COc1ccc(C[C@@H]2NC(=O)[C@H]([C@@H](C)O)NC(=O)[C@@H]3[C@@H]4CCN3C(=O)[C@@H]3Cc5cn(c6ccc(F)cc56)CCCCCCN(Cc5ccc(cc5)CCNC(=O)[C@]5(C)CCCN5C2=O)C(=O)CCC(=O)N[C@@H](CNC(=O)CCOCCOCC[N+](C)(C)CCNC(=O)COCCOCCNC(=O)COCCOCCNC(=O)CC[C@@H](NC(=O)CC[C@@H](NC(=O)CCCCCCCCCCCCCCCCC(=O)O)C(=O)O)C(=O)O)C(=O)N[C@H](C)C(=O)N[C@@H](Cc2cccc(c2)CNC(=O)CO4)C(=O)N3)cc1 [Ex-59] | – | –
> 8.90 | 11.10 | 10.21 | COc1ccc(C[C@@H]2NC(=O)[C@H]([C@@H](C)O)NC(=O)[C@@H]3[C@@H]4CCN3C(=O)[C@@H]3Cc5cn(c6ccc(F)cc56)CCCCCCN(Cc5ccc(cc5)CCNC(=O)[C@]5(C)CCCN5C2=O)C(=O)CCC(=O)N[C@@H](CNC(=O)COCCOCC[N+](C)(C)CCOCCNC(=O)COCCOCCNC(=O)COCCOCCNC(=O)CC[C@H](NC(=O)CC[C@H](NC(=O)CCCCCCCCCCCCCCC(=O)O)C(=O)O)C(=O)O)C(=O)N[C@H](C)C(=O)N[C@@H](Cc2cccc(c2)CNC(=O)CO4)C(=O)N3)cc1 [Ex-60] | – | –
> 8.90 | 10.31 | 9.88 | COc1ccc(C[C@@H]2NC(=O)[C@H]([C@@H](C)O)NC(=O)[C@@H]3[C@@H]4CCN3C(=O)[C@@H]3Cc5cn(c6ccc(F)cc56)CCCCCCN(Cc5ccc(cc5)CCNC(=O)[C@]5(C)CCCN5C2=O)C(=O)CCC(=O)N[C@@H](CNC(=O)COCCOCCNC(=O)CC[C@H](NC(=O)CCOCCOCC[N+](C)(C)CCNC(=O)COCCOCCNC(=O)COCCOCCNC(=O)CC[C@H](NC(=O)CCCCCCCCCCCCCCCCC(=O)O)C(=O)O)C(=O)O)C(=O)N[C@H](C)C(=O)N[C@@H](Cc2cccc(c2)CNC(=O)CO4)C(=O)N3)cc1 [Ex-61] | – | –
> 8.90 | > 11.22 | 10.35 | COc1ccc(C[C@@H]2NC(=O)[C@H]([C@@H](C)O)NC(=O)[C@@H]3[C@@H]4CCN3C(=O)[C@@H]3Cc5cn(c6ccc(F)cc56)CCCCCCN(Cc5ccc(cc5)CCNC(=O)[C@]5(C)CCCN5C2=O)C(=O)CCC(=O)N[C@@H](CNC(=O)COCCOCCNC(=O)COCCOCCNC(=O)CC[C@H](NC(=O)CCCCCCCCCCCCCCCCC(=O)O)C(=O)O)C(=O)N[C@H](CNC(=O)CCOCCOCC[N+](C)(C)C)C(=O)N[C@@H](Cc2cccc(c2)CNC(=O)CO4)C(=O)N3)cc1 [Ex-63] | – | –
> 8.90 | 10.92 | 10.55 | COc1ccc(C[C@@H]2NC(=O)[C@H]([C@@H](C)O)NC(=O)[C@@H]3[C@@H]4CCN3C(=O)[C@@H]3Cc5cn(c6ccc(F)cc56)CCCCCCN(Cc5ccc(cc5)CCNC(=O)[C@]5(C)CCCN5C2=O)C(=O)CCC(=O)N[C@@H](CNC(=O)CCOCCOCC[N+](C)(C)CCNC(=O)COCCOCCNC(=O)COCCOCCNC(=O)CC[C@H](NC(=O)CCCCCCCCCCCCCCC(=O)O)C(=O)O)C(=O)N[C@H](CNC(=O)CCOCCOCC[N+](C)(C)C)C(=O)N[C@@H](Cc2cccc(c2)CNC(=O)CO4)C(=O)N3)cc1 [Ex-64] | – | –
> 8.90 | > 11.22 | 10.62 | COc1ccc(C[C@@H]2NC(=O)[C@H]([C@@H](C)O)NC(=O)[C@@H]3[C@@H]4CCN3C(=O)[C@@H]3Cc5cn(c6ccc(F)cc56)CCCCCCN(Cc5ccc(cc5)CCNC(=O)[C@]5(C)CCCN5C2=O)C(=O)CCC(=O)N[C@@H](CNC(=O)COCCOCC[N+](C)(C)CCNC(=O)COCCOCCNC(=O)COCCOCCNC(=O)CC[C@H](NC(=O)CCCCCCCCCCCCCCCCC(=O)O)C(=O)O)C(=O)N[C@H](CNC(=O)CCOCCOCC[N+](C)(C)C)C(=O)N[C@@H](Cc2cccc(c2)CNC(=O)CO4)C(=O)N3)cc1 [Ex-65] | – | –
> 8.90 | 11.15 | 10.57 | COc1ccc(C[C@@H]2NC(=O)[C@H]([C@@H](C)O)NC(=O)[C@@H]3[C@@H]4CCN3C(=O)[C@@H]3Cc5cn(c6ccc(F)cc56)CCCCCCN(Cc5ccc(cc5)CCNC(=O)[C@]5(C)CCCN5C2=O)C(=O)CCC(=O)N[C@@H](CNC(=O)COCCOCC[N+](C)(C)CCOCCNC(=O)COCCOCCNC(=O)COCCOCCNC(=O)CC[C@H](NC(=O)CC[C@H](NC(=O)CCCCCCCCCCCCCCC(=O)O)C(=O)O)C(=O)O)C(=O)N[C@H](CNC(=O)CCOCCOCC[N+](C)(C)C)C(=O)N[C@@H](Cc2cccc(c2)CNC(=O)CO4)C(=O)N3)cc1 [Ex-66] | – | –
> 8.90 | > 11.22 | 11.30 | COc1ccc(C[C@@H]2NC(=O)[C@H]([C@@H](C)O)NC(=O)[C@@H]3[C@@H]4CCN3C(=O)[C@@H]3Cc5cn(c6ccc(F)cc56)CCCCCCN(Cc5ccc(cc5)CCNC(=O)[C@]5(C)CCCN5C2=O)C(=O)CCC(=O)N[C@@H](C)C(=O)N[C@H](CNC(=O)CCOCCOCC[N+](C)(C)CCNC(=O)COCCOCCNC(=O)COCCOCCNC(=O)CCC(CS(=O)(=O)O)NC(=O)CCCCCCCCCCCCCCCCC(=O)O)C(=O)N[C@@H](Cc2cccc(c2)CNC(=O)CO4)C(=O)N3)cc1 (stereo partly drawn) [Ex-67] | – | –
> 8.90 | > 11.22 | 11.30 | COc1ccc(C[C@@H]2NC(=O)[C@H]([C@@H](C)O)NC(=O)[C@@H]3[C@@H]4CCN3C(=O)[C@@H]3Cc5cn(c6ccc(F)cc56)CCCCCCN(Cc5ccc(cc5)CCNC(=O)[C@]5(C)CCCN5C2=O)C(=O)CCC(=O)N[C@@H](C)C(=O)N[C@H](CNC(=O)CCOCCOCC[N+](C)(C)CCNS(=O)(=O)CCCNS(=O)(=O)CCCNC(=O)CC[C@H](NC(=O)CCCCCCCCCCCCCCCCC(=O)O)C(=O)O)C(=O)N[C@@H](Cc2cccc(c2)CNC(=O)CO4)C(=O)N3)cc1 [Ex-68] | – | –

SMILES | pKi (PCSK9 [1]) | pKi (PCSK9 [2]; [4]) | pKi (PCSK9 [3]; [5]) | pKi (PCSK9 [2]) | pKi (PCSK9 [3])
COc1ccc(C[C@@H]2NC(=O)[C@H]([C@@H](C)O)NC(=O)[C@@H]3[C@@H]4CCN3C(=O)[C@@H]3Cc5cn(c6ccc(F)cc56)CCCCCCN(Cc5ccc(cc5)CCNC(=O)[C@]5(C)CCCN5C2=O)C(=O)CCC(=O)N[C@@H](CNC(=O)COCCOCC[N+](C)(C)CCNC(=O)COCCOCCNC(=O)COCCOCCNC(=O)CC[C@H](NC(=O)CCCCCCCCOCCCCCCCCC(=O)O)C(=O)O)C(=O)N[C@H](C)C(=O)N[C@@H](Cc2cccc(c2)CNC(=O)CO4)C(=O)N3)cc1 [Ex-62] | > 8.90 | – | – | > 11.22 | 10.42
